According to patent US20210255193A1, “LYSINE REACTIVE PROBES AND USES THEREOF” (The Scripps Research Institute, priority 2017, published 2021):

Columns and labels:
Assay in all cases: competitive isoTOP-ABPP
Assay type in all cases: binding
LMNA Prelamin-A/C = molecular target: T1, LMNA Prelamin-A/C (Homo sapiens, UniProt P02545); conditions: 50 uM, 231 sol, in vitro; for R value (DMSO/fragment) for probe 1 labeling: P02545_K135
T1 construct: isoTOP-ABPP experiments performed in cell lysates (in vitro); endogenous in cells; host or cells: MDA-MB-231 soluble lysate
T1 sequence (P02545 1-664): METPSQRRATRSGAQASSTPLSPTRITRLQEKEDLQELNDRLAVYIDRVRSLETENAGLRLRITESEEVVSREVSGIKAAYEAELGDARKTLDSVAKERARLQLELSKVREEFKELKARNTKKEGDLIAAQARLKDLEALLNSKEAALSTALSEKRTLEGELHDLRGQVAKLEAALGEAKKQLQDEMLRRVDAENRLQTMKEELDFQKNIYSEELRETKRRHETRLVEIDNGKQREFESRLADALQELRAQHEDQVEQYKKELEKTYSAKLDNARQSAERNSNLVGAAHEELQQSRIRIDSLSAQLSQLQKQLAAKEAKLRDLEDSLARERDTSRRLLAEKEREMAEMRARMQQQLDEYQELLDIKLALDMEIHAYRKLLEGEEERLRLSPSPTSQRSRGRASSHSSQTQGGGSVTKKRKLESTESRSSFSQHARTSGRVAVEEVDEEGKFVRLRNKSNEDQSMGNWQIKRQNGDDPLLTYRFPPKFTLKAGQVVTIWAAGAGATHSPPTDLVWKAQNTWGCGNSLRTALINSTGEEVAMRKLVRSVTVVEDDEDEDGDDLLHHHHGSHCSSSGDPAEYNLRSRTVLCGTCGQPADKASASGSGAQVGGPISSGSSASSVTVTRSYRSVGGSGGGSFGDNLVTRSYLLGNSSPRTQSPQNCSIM
Outline: (§1)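 Cell lysate treated in vitro with fragments (50 μM activated esters, 100 μM guanidinylating agents) or DMSO, labelled 1 h at ambient temperature with 0.1 mM STP-alkyne, CuAAC-tagged with light/heavy TEV tags, analysed by MS. R = DMSO/compound MS1 peak-area ratio; lysines with R≥4 called liganded.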

[1] = molecular target: T2, UCHL5 Ubiquitin carboxyl-terminal hydrolase isozyme L5 (Homo sapiens, UniProt Q9Y5K5); conditions: 50 uM, 231 sol, in vitro; for R value (DMSO/fragment) for probe 1 labeling: Q9Y5K5_K323
T2 construct: endogenous in cells; host or cells: MDA-MB-231 (soluble fraction of lysate)
T2 sequence (Q9Y5K5 1-329): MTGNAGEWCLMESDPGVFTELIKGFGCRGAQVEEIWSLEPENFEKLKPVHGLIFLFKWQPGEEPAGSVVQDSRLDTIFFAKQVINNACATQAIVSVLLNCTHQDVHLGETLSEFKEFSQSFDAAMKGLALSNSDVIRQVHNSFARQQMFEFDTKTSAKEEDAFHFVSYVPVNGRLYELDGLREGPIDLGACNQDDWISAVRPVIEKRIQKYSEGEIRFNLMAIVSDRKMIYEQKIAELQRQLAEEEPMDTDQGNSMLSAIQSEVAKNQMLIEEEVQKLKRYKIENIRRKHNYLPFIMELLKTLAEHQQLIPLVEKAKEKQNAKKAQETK
Outline: as §1

[2] = molecular target: T3, ERAP1 Endoplasmic reticulum aminopeptidase 1 (Homo sapiens, UniProt Q9NZ08); conditions: 50 uM, 231 sol, in vitro; for R value (DMSO/fragment) for probe 1 labeling: Q9NZ08_K685
T3 construct: endogenous in cells; host or cells: MDA-MB-231 lysate
T3 sequence (Q9NZ08 whole entry, the tested form may be a part): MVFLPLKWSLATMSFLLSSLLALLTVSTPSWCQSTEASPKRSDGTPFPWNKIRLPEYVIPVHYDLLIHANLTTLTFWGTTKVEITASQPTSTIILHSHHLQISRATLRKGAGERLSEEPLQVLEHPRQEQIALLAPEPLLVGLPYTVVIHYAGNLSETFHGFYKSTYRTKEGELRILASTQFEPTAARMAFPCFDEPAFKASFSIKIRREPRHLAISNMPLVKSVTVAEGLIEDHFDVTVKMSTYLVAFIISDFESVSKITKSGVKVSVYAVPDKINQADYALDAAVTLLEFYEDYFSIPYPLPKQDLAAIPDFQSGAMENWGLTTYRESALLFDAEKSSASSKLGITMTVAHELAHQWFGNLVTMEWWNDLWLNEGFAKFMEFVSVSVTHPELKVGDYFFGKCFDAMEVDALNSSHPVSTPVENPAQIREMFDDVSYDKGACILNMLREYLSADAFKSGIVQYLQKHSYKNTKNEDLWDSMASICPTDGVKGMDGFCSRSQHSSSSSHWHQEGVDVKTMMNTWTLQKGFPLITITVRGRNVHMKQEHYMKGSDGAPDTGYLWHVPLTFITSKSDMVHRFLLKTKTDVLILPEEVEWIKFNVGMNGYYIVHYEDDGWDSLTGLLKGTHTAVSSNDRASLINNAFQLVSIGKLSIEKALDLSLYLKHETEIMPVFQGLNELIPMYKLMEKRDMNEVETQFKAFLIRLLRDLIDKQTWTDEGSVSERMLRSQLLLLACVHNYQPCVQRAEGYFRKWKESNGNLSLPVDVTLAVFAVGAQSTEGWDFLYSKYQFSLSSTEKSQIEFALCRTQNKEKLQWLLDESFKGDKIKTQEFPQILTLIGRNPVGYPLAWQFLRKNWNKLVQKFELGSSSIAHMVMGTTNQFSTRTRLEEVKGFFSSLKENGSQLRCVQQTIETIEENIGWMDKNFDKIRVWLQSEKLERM
Outline: as §1

[3] = molecular target: T4, RQCD1 Cell differentiation protein RCD1 homolog (Homo sapiens, UniProt Q92600); conditions: 50 uM, 231 sol, in vitro; for R value (DMSO/fragment) for probe 1 labeling: Q92600_K230
T4 construct: isoTOP-ABPP experiments performed in cell lysates (in vitro); endogenous in cells; host or cells: soluble proteome of human cancer cell lines (MDA-MB-231; Ramos and Jurkat also prepared)
T4 sequence (Q92600 whole entry, the tested form may be a part): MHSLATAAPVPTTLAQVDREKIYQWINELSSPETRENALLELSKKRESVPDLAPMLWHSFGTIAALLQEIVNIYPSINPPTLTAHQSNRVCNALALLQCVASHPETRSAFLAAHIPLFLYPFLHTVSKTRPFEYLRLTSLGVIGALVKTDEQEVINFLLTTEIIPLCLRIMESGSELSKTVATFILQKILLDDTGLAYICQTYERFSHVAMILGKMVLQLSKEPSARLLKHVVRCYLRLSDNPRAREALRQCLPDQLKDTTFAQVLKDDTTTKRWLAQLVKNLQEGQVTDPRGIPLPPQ
Outline: as §1

[4] = molecular target: T5, MTOR Serine/threonine-protein kinase mTOR (Homo sapiens, UniProt P42345); conditions: 50 uM, 231 sol, in vitro; for R value (DMSO/fragment) for probe 1 labeling: P42345_K2066
T5 construct: isoTOP-ABPP experiments performed in cell lysates (in vitro); endogenous in cells; host or cells: soluble proteome of human cancer cell lines (MDA-MB-231; Ramos and Jurkat also prepared)
Outline: as §1

Row | R value (DMSO/fragment) for probe 1 labeling (LMNA Prelamin-A/C) | R value (DMSO/fragment) for probe 1 labeling [1] | R value (DMSO/fragment) for probe 1 labeling [2] | R value (DMSO/fragment) for probe 1 labeling [3] | R value (DMSO/fragment) for probe 1 labeling [4] | Structure (SMILES) | isoTOP-ABPP reactivity ratio at lysine P02545_K135 (LMNA Prelamin-A/C) | isoTOP-ABPP reactivity ratio at lysine Q9Y5K5_K323 [1] | isoTOP-ABPP reactivity ratio at lysine Q9NZ08_K685 [2] | isoTOP-ABPP reactivity ratio at lysine Q92600_K230 [3] | isoTOP-ABPP reactivity ratio at lysine P42345_K2066 [4]
1 | 1.1 | 1.1 | 1.1 | 1.0 | 0.9 | O=C(CCc1cn(-c2ccccc2)nc1-c1ccccc1)Oc1c(F)c(F)c(F)c(F)c1F [fragment 19, Pentafluorophenyl 3-(1,3-diphenyl-1H-pyrazol-4-yl)propanoate] |  |  |  |  | 
2 | 1.0 | 0.9 | 1.5 | 0.9 | 1.0 | O=C(Oc1c(F)c(F)c(F)c(F)c1F)C(c1ccccc1)c1ccccc1 [fragment 20, Pentafluorophenyl 2,2-diphenylacetate] |  |  |  |  | 
3 | 1.0 | 1.0 | 1.4 | 0.9 | 0.7 | O=C(Oc1c(F)c(F)c(F)c(F)c1F)c1cc(C(F)(F)F)cc(C(F)(F)F)c1 [fragment 21, Pentafluorophenyl 3,5-bis(trifluoromethyl)benzoate] |  |  |  |  | 
4 | 1.0 | 0.8 | 2.2 | 1.0 | 2.8 | Cn1cc(CC(=O)Oc2c(F)c(F)c(F)c(F)c2F)c2ccccc21 [fragment 22, Pentafluorophenyl 2-(1-methyl-1H-indol-3-yl)acetate] |  |  |  |  | 
5 |  |  |  |  |  | O=C(CCc1cn(-c2ccccc2)nc1-c1ccccc1)Oc1ccc([N+](=O)[O-])cc1[N+](=O)[O-] [fragment 29, 2,4-Dinitrophenyl 3-(1,3-diphenyl-1H-pyrazol-4-yl)propanoate] | 1.0 | 1.1 | 1.0 | 1.0 | 1.0
6 |  |  |  |  |  | O=C(Oc1ccc([N+](=O)[O-])cc1[N+](=O)[O-])C(c1ccccc1)c1ccccc1 [fragment 30, 2,4-Dinitrophenyl 2,2-diphenylacetate] | 20.0 | 1.1 | 1.2 | 1.6 | 3.5
7 |  |  |  |  |  | O=C(Oc1ccc([N+](=O)[O-])cc1[N+](=O)[O-])c1cc(C(F)(F)F)cc(C(F)(F)F)c1 [fragment 31, 2,4-Dinitrophenyl 3,5-bis(trifluoromethyl)benzoate] | 1.3 | 1.0 | 1.6 | 1.0 | 1.1
8 |  |  |  |  |  | Cn1cc(CC(=O)Oc2ccc([N+](=O)[O-])cc2[N+](=O)[O-])c2ccccc21 [fragment 32, 2,4-Dinitrophenyl 2-(1-methyl-1H-indol-3-yl)acetate] | 20.0 | 1.0 | 2.8 | 10.2 | 8.0
9 |  |  |  |  |  | COc1cc(CCC(=O)Oc2ccc([N+](=O)[O-])cc2[N+](=O)[O-])cc(OC)c1OC [fragment 33, 2,4-Dinitrophenyl 3-(3,4,5-trimethoxyphenyl)propanoate] | 0.7 | 0.8 | 1.0 | 2.5 | 1.1
